From PubChem BioAssay AID1996 come the findings set out here.

Converted amounts (≈) assume the structure as drawn.

The solubility (kinetic) is solubility judged after dilution from a stock solution rather than from solid.

For the data set the following is noted: buffer; pH 7.4; 200.0 µM.
In turn, `O=C(NCCN1CCCCC1)Nc1ccccc1F` yielded a solubility (kinetic) of over 39.8 µg/mL.

The molecule `N#C/C(=C\c1ccc[nH]1)C(=O)N1CCCCC1` registered a solubility (kinetic) of over 34.4 µg/mL.

With `O=c1c2ccccc2nc(/C=C/c2ccc(Cl)cc2)n1CCO`, the solubility (kinetic) was determined as 1.3 µg/mL (≈ 3.98 µM).

`FC(F)(F)c1ccc(Cl)c(NC2=NCCCCC2)c1`: the kinetic solubility is over 43.6 µg/mL.

`COc1ccc(S(=O)(=O)N2CCOCC2)c2ccccc12` displayed a solubility (kinetic) of 40.6 µg/mL (≈ 132 µM).

`O=C(COC(=O)c1cccnc1Cl)NCCc1ccc(F)cc1` displayed a kinetic solubility of over 50.5 µg/mL.

Consider `CCc1ccc(NC(=O)Nc2ccon2)cc1`, for which the solubility (kinetic) was over 34.7 µg/mL.

Molecule `O=C(N/N=C/c1cccnc1)c1cccc(Cl)c1` registered a solubility (kinetic) of over 39 µg/mL.

`Cc1cc(Br)cc(Cl)c1OC(=O)c1cnccn1` displayed a solubility (kinetic) of 47.4 µg/mL (≈ 145 µM).

`NS(=O)(=O)c1ccc(CCNC(=O)COC(=O)CCc2c[nH]c3ccccc23)cc1` yielded a kinetic solubility of over 64.4 µg/mL.

`CN1CCN(C(=O)C2CC(=O)N(c3ccc(Cl)cc3)C2)CC1` (centres undefined) had a solubility (kinetic) of 42.7 µg/mL (≈ 133 µM).

As for `O=C(Nc1cccc(S(=O)(=O)N2CCOCC2)c1)c1cc(=O)[nH]c2ccccc12`, the kinetic solubility turned out to be 9.9 µg/mL (≈ 23.9 µM).

In turn, `CCCc1cc(=O)[nH]c(SCC(=O)NCCN2C(=O)CSC2=O)n1` registered a solubility (kinetic) of over 55.6 µg/mL.

In the case of `CC(C)C(=O)Nc1ccc(N2CCCC2)c(Cl)c1`, the kinetic solubility stood at 10.4 µg/mL (≈ 39 µM).

`O=C(COC(=O)c1cccc(OC(F)F)c1)NC1CCCC1`: the kinetic solubility is 28.2 µg/mL (≈ 90 µM).

For the molecule `CCCOc1ccc(N2C(=O)CC(NCC#N)C2=O)cc1` (centres undefined), the kinetic solubility is 41 µg/mL (≈ 143 µM).

The molecule `CC1(C)CC(=O)N(c2cc(Cl)cc(Cl)c2)C(=O)C1` showed a kinetic solubility of 11.7 µg/mL (≈ 40.9 µM).

The molecule `O=C(O)Cc1ccc(NCc2ccccc2Cl)cc1` had a solubility (kinetic) of 28 µg/mL (≈ 102 µM).

`CCC(=O)OCC(=O)Nc1cc([N+](=O)[O-])ccc1Cl` yielded a solubility (kinetic) of over 43 µg/mL.

In turn, `Cc1ccc(NC(=O)CNC(C)c2ccccc2)cc1.Cl` (centres undefined) yielded a kinetic solubility of over 45.7 µg/mL.

In the case of `CC(=O)N1CCN(CC(=O)Nc2cc(S(=O)(=O)N3CCCCC3)ccc2C)CC1`, the solubility (kinetic) is over 63.4 µg/mL.

The molecule `O=C(N/C(=C/c1ccccc1Cl)C(=O)N1CCCC1)c1ccccc1` came in with a solubility (kinetic) of over 53.2 µg/mL.

`O=C(COc1ccccc1Br)NC1CC1` gave a kinetic solubility of over 40.5 µg/mL.

For `Nc1ccccc1N=Cc1ccc(-c2cccc(Cl)c2)o1`, the solubility (kinetic) was under 0.3 µg/mL.

Molecule `CCSc1nc2sc3c(c2c(=O)n1-c1ccccc1C)CCN(C)C3` had a solubility (kinetic) of 53.7 µg/mL (≈ 145 µM).

With `Cl.N=c1sccn1CC(=O)Nc1ccc(Cl)cc1[N+](=O)[O-]`, the solubility (kinetic) came out at 44.4 µg/mL.

The molecule `CC(C)C1/C(=N/O)CC(c2ccccc2)NC1c1ccccc1` (centres undefined) had a solubility (kinetic) of under 0.3 µg/mL.

Molecule `O=C(NC1CCC(O)CC1)c1cccc2cccnc12` (centres undefined) displayed a solubility (kinetic) of over 40.5 µg/mL.

The molecule `CN(C(=O)c1ccco1)c1nc(-c2ccc(Cl)cc2)cs1` displayed a solubility (kinetic) of 0.9 µg/mL (≈ 2.82 µM).

`N/C(=N\[N+](=O)[O-])N1CCN(C(=O)OC2CCCC2)CC1` had a solubility (kinetic) of over 42.8 µg/mL.

`CC(C)(CCC(=S)N1CCOCC1)C1CCCCC1`: the solubility (kinetic) was determined as 4.1 µg/mL (≈ 14.5 µM).

In the case of `O=C(NC1CCCC1)c1cc(-c2ccc(F)cc2)on1`, the solubility (kinetic) was 2.1 µg/mL (≈ 7.66 µM).

`Cc1nn(C(=O)N(C)C)c(C)c1CN1C(=O)c2ccccc2C1=O` came in with a kinetic solubility of over 49 µg/mL.

Regarding `Cc1cc(C)c2c(N)c(C(=O)Nc3cccc(C)c3C)sc2n1`, the solubility (kinetic) amounted to 1.2 µg/mL (≈ 3.69 µM).

Turning to `Nc1ccc(CCc2ccc(N)cc2)cc1`, the kinetic solubility came to 22 µg/mL (≈ 104 µM).

In the case of `O=C1c2ccccc2CN1c1ccccc1`, the kinetic solubility came out at 12.4 µg/mL (≈ 59.3 µM).

`CCC1(c2ccc(F)cc2)NC(=O)N(CC(=O)NC2CCCC(C)C2C)C1=O` (centres undefined) came in with a kinetic solubility of 13.2 µg/mL (≈ 33.9 µM).

`O=C(/C=C/c1ccc(Cl)cc1)NCCCn1ccnc1` yielded a solubility (kinetic) of over 43.5 µg/mL.

`CCCCn1c(NCc2ccncc2)nc2ccccc21` displayed a kinetic solubility of 39.4 µg/mL (≈ 141 µM).

As to `CCOC(=O)c1nccnc1C(=O)Nc1cccc(C(F)(F)F)c1`, the solubility (kinetic) came to 47.5 µg/mL (≈ 140 µM).

In turn, `COC(=O)C1=Nc2ccccc2/C1=C\c1c(O)n(C)c(=O)n(C)c1=O` showed a solubility (kinetic) of over 51.2 µg/mL.

In the case of `COC(=O)c1cccn(CC(=O)c2ccc(Cl)cc2)c1=O`, the kinetic solubility is over 45.9 µg/mL.

Consider `COc1ccc(NC(=O)C2CC2)cc1OC1CCCC1`, for which the kinetic solubility came to 16 µg/mL (≈ 58.1 µM).

`CCOC(=O)CNC(=O)c1sc(NC(=O)/C=C/c2ccccc2)nc1C` came in with a kinetic solubility of 0.3 µg/mL (≈ 0.803 µM).

As for `CCOC(=O)c1c(N)sc(C(=O)Nc2ccccc2)c1C`, the kinetic solubility was found to be 40.7 µg/mL (≈ 134 µM). Compared with the last molecule, the solubility kinetic is about 140-fold higher.

`COc1cc(C(=O)Nc2nc3ccccc3[nH]2)ccc1OC(F)F` returned a kinetic solubility of 1 µg/mL (≈ 3 µM).

Regarding `On1c(-c2ccc(Cl)cc2Cl)nc2ncccc21`, the solubility (kinetic) was over 42 µg/mL.

`CCC(CC)C(=O)NCc1ccc(Cl)cc1` yielded a solubility (kinetic) of over 36 µg/mL.

`CN1CCCN(Cc2ccccc2Br)CC1`: the solubility (kinetic) amounted to 35.3 µg/mL (≈ 125 µM).

For the molecule `O=C(c1cccc(O)c1)N1CCN(C(=O)C2CC2)CC1`, the kinetic solubility is over 41.1 µg/mL.

Take `O=C1NC(=Nc2cccc([N+](=O)[O-])c2)SC1(CO)CO`: the solubility (kinetic) was found to be 41.2 µg/mL (≈ 139 µM).

The molecule `CNC(=O)c1cc(C(=O)c2ccc(Cl)cc2)c[nH]1` showed a solubility (kinetic) of 10.5 µg/mL (≈ 40 µM). This solubility kinetic is about 3.9-fold lower than that of the molecule before.

`Cc1ccc(C(=O)CN2CCN(c3ccccn3)CC2)c(C)c1` gave a solubility (kinetic) of 25.5 µg/mL (≈ 82.4 µM).

`CN1CCC(N(C)S(=O)(=O)c2ccc(Cl)cc2)CC1` returned a solubility (kinetic) of over 45.4 µg/mL.

Turning to `Cc1noc(C)c1COc1ccc(C(=O)N2CCN(S(=O)(=O)c3cccc(F)c3)CC2)cc1`, the solubility (kinetic) is 25.1 µg/mL (≈ 53 µM).

`O=S1(=O)CCN(OCc2ccc(Cl)cc2)CC1` gave a kinetic solubility of over 41.4 µg/mL.

`Cc1cccc(NC(=O)N2C3CCCC2CC(NC(=O)C2CC2)C3)c1` (centres undefined) gave a solubility (kinetic) of 22.7 µg/mL (≈ 66.5 µM).

`CCOc1ccccc1NC(=O)c1ccc2c(c1)C(=O)N(CC)C2=O`: the kinetic solubility was under 0.4 µg/mL.

As for `O=c1[nH]c2ccccc2nc1Cc1ccc([N+](=O)[O-])cc1`, the solubility (kinetic) came out at 3.6 µg/mL (≈ 12.8 µM).

For `O=C(Nc1csc([N+](=O)[O-])c1)Nc1ccccc1Cl`, the solubility (kinetic) worked out at 1 µg/mL (≈ 3.36 µM).

Molecule `Cc1ccc(C(=O)NC(C)c2ccc(C)c(C)c2)s1` (centres undefined) registered a kinetic solubility of 3.5 µg/mL (≈ 12.8 µM).

In turn, `O=C(OCc1cncs1)c1cccs1` displayed a solubility (kinetic) of over 33.8 µg/mL.

The molecule `COc1ccc(CC(=O)N2CCN(c3ccccc3)CC2)cc1` showed a solubility (kinetic) of 31.7 µg/mL (≈ 102 µM).

Molecule `O=C(O)c1cccc(Nc2c([N+](=O)[O-])c(=O)oc3ccccc23)c1` returned a kinetic solubility of over 48.9 µg/mL.

Take `C=CCc1c(C)nc(N2CCSCC2)[nH]c1=O`: the solubility (kinetic) was 32 µg/mL (≈ 127 µM).

Take `CC(C)CCc1noc(CN(C)CCC2CCOCC2)n1`: the solubility (kinetic) is over 44.3 µg/mL.

The molecule `O=S(=O)(c1ccccc1)c1cnc(-c2ccccc2)nc1N1CCCC1` showed a solubility (kinetic) of under 0.3 µg/mL.

In turn, `CCNC(=O)C(=O)Nc1cc2c3c(c1)CCC(=O)N3CCC2` returned a kinetic solubility of over 45.2 µg/mL.

In the case of `CCOc1ccc(N=C2NC(=O)CS2)cc1`, the kinetic solubility is over 35.4 µg/mL.

For `O=C(/C(=C/c1cccnc1)n1ccnc1)c1ccc(Cl)cc1Cl`, the kinetic solubility is over 51.6 µg/mL.

`COc1cc2nc(NC(=O)c3ccco3)sc(=O)c2cc1OC` returned a kinetic solubility of 1 µg/mL (≈ 3.01 µM).

In turn, `COC(=O)/C=C1\SC(=NC(=O)c2ccc(C)cc2)NC1=O` displayed a solubility (kinetic) of 44.5 µg/mL (≈ 146 µM).

`O=C(COC(=O)/C=C/c1cccc(Cl)c1)Nc1c(F)cccc1F` showed a solubility (kinetic) of 6.3 µg/mL (≈ 17.9 µM).

Turning to `CCOC(=O)c1ccc(NC(=O)N2C[C@@H]3C[C@@H](C2)c2cccc(=O)n2C3)cc1`, the solubility (kinetic) was over 57.2 µg/mL.
